Tests used:
Type in all cases: cell-based
[1] = system: Staphylococcus aureus No. 5 (MRSA); assay: MIC, standard serial dilution method; details: Muller-Hinton agar medium, 37° C.
Salmonella typhi T-63 = assay: MIC, standard serial dilution method; details: Muller-Hinton agar medium, 37° C.
[2] = system: Staphylococcus aureus MS 16526; assay: MIC, standard serial dilution method; details: Muller-Hinton agar medium, 37° C.
[3] = system: Mycobacterium smegmatis ATCC 607; assay: MIC, standard serial dilution method; details: Muller-Hinton agar medium, 37° C.
Bacillus anthracis = details: Muller-Hinton agar medium, 37° C.
[4] = system: Micrococcus luteus PIC 1001; assay: MIC, standard serial dilution method; details: Muller-Hinton agar medium, 37° C.
[5] = system: Pseudomonas aeruginosa GN315; assay: MIC, standard serial dilution method; details: Muller-Hinton agar medium, 37° C.
Escherichia coli BEM 11 = assay: MIC, standard serial dilution method; details: Muller-Hinton agar medium, 37° C.
[6] = system: Shigella dysenteria JS 11910; assay: MIC, standard serial dilution method; details: Muller-Hinton agar medium, 37° C.
[7] = system: Staphylococcus aureus Smith; assay: MIC, standard serial dilution method; details: Muller-Hinton agar medium, 37° C.
[8] = system: Staphylococcus aureus No. 17 (MRSA); assay: MIC, standard serial dilution method; details: Muller-Hinton agar medium, 37° C.
[9] = system: Staphylococcus aureus TY-0428; assay: MIC, standard serial dilution method; details: Muller-Hinton agar medium, 37° C.
[10] = system: Escherichia coli K-12 ML 1692; assay: MIC, standard serial dilution method; details: Muller-Hinton agar medium, 37° C.
Experimental: (§1) The antibacterial activities of the amythiamicin amide derivative of the general formula (I) according to this invention are now concretely described. Compounds No. 1 to No. 11 according to this invention, which were respectively prepared in Examples 1 to 11 hereinafter given, were tested as the test compounds for their minimum inhibitory concentrations (MIC.) (μg/ml) against growth of a variety of test microorganisms by a standard serial dilution method. In the tests, the incubation medium used was Muller-Hinton agar medium and the incubation temperature was 37° C. The test results are shown as antibacterial spectra in the following Tables 2 and 3.

[11] = system: Shigella clexnerl JS 11749; assay: MIC, standard serial dilution method; details: Muller-Hinton agar medium, 37° C.
Experimental: as §1

Shigella sonnei JS 11746 = assay: MIC, standard serial dilution method; details: Muller-Hinton agar medium, 37° C.
Experimental: as §1

Escherichia coli K-12 = assay: MIC, standard serial dilution method; details: Muller-Hinton agar medium, 37° C.
Escherichia coli NIHJ = assay: MIC, standard serial dilution method; details: Muller-Hinton agar medium, 37° C.
[12] = system: Corynebacterium bovis 1810; assay: MIC, standard serial dilution method; details: Muller-Hinton agar medium, 37° C.
Serratia marcescens = assay: MIC, standard serial dilution method; details: Muller-Hinton agar medium, 37° C.
[13] = system: Bacillus subtilis PCI 219; assay: MIC, standard serial dilution method; details: Muller-Hinton agar medium, 37° C.
[14] = system: Salmonella enteritidis 1891; assay: MIC, standard serial dilution method; details: Muller-Hinton agar medium, 37° C.
[15] = system: Klebsiella pneumonia PCI 602; assay: MIC, standard serial dilution method; details: Klebsiella pneumonia PCI 602 (Table 2); Muller-Hinton agar medium, 37° C.
[16] = system: Bacillus subtilis NRRL B-558; assay: MIC, standard serial dilution method; details: Muller-Hinton agar medium, 37° C.
[17] = system: Proteus mirabilis IFM OM-9; assay: MIC, standard serial dilution method; details: Muller-Hinton agar medium, 37° C.
Escherichia coli BE 1186 = assay: MIC, standard serial dilution method; details: Muller-Hinton agar medium, 37° C.
[18] = system: Micrococcus luteus FDA 16; assay: MIC, standard serial dilution method; details: Muller-Hinton agar medium, 37° C.
[19] = system: Staphylococcus aureus MS 9610; assay: MIC, standard serial dilution method; details: Muller-Hinton agar medium, 37° C.
[20] = system: Pseudomonas aeruginosa A3; assay: MIC, standard serial dilution method; details: Muller-Hinton agar medium, 37° C.
Candida albicans 3147 = assay: MIC, standard serial dilution method; details: Muller-Hinton agar medium, 37° C.
[21] = system: Escherichia coli BEM 1121; assay: MIC, standard serial dilution method; details: Muller-Hinton agar medium, 37° C.
[22] = system: Bacillus cereus ATCC 10702; assay: MIC, standard serial dilution method; details: Muller-Hinton agar medium, 37° C.
[23] = system: Providencia rettgeri GN 466; assay: MIC, standard serial dilution method; details: Muller-Hinton agar medium, 37° C.
Proteus vulgaris OX 19 = assay: MIC, standard serial dilution method; details: Muller-Hinton agar medium, 37° C.
[24] = system: Staphylococcus aureus FDA 209P; assay: MIC, standard serial dilution method; details: Muller-Hinton agar medium, 37° C.
[25] = system: Micrococcus luteus IFO 3333; assay: MIC, standard serial dilution method; details: Muller-Hinton agar medium, 37° C.
[26] = system: Providencia rettgeri GN 311; assay: MIC, standard serial dilution method; details: Muller-Hinton agar medium, 37° C.

SMILES: CCCCNCCCNCCCNC(=O)c1csc(-c2ccc3c(n2)-c2csc(n2)-c2csc(n2)C(C(C)C)NC(=O)CNC(=O)c2csc(n2)C(C(C)C)NC(=O)c2nc(sc2C)C(CC(=O)NC)NC(=O)c2csc-3n2)n1 (stereo not drawn) [Compound No. 6]
- Minimum growth inhibitory concentrations (MIC.) [1]: > 100 µg/mL
- Minimum growth inhibitory concentrations (MIC.) (Salmonella typhi T-63): > 100 µg/mL
- Minimum growth inhibitory concentrations (MIC.) [2]: > 100 µg/mL
- Minimum growth inhibitory concentrations (MIC.) [3]: > 100 µg/mL
- Minimum growth inhibitory concentrations (MIC.) (Bacillus anthracis): 25 µg/mL
- Minimum growth inhibitory concentrations (MIC.) [4]: > 100 µg/mL
- Minimum growth inhibitory concentrations (MIC.) [5]: > 100 µg/mL
- Minimum growth inhibitory concentrations (MIC.) (Escherichia coli BEM 11): > 100 µg/mL
- Minimum growth inhibitory concentrations (MIC.) [6]: > 100 µg/mL
- Minimum growth inhibitory concentrations (MIC.) [7]: 25 µg/mL
- Minimum growth inhibitory concentrations (MIC.) [8]: > 100 µg/mL
- Minimum growth inhibitory concentrations (MIC.) [9]: > 100 µg/mL
- Minimum growth inhibitory concentrations (MIC.) [10]: > 100 µg/mL
- Minimum growth inhibitory concentrations (MIC.) [11]: > 100 µg/mL
- Minimum growth inhibitory concentrations (MIC.) (Shigella sonnei JS 11746): > 100 µg/mL
- Minimum growth inhibitory concentrations (MIC.) (Escherichia coli K-12): > 100 µg/mL
- Minimum growth inhibitory concentrations (MIC.) (Escherichia coli NIHJ): > 100 µg/mL
- Minimum growth inhibitory concentrations (MIC.) [12]: > 100 µg/mL
- Minimum growth inhibitory concentrations (MIC.) (Serratia marcescens): > 100 µg/mL
- Minimum growth inhibitory concentrations (MIC.) [13]: > 100 µg/mL
- Minimum growth inhibitory concentrations (MIC.) [14]: > 100 µg/mL
- Minimum growth inhibitory concentrations (MIC.) [15]: > 100 µg/mL
- Minimum growth inhibitory concentrations (MIC.) [16]: 25 µg/mL
- Minimum growth inhibitory concentrations (MIC.) [17]: > 100 µg/mL
- Minimum growth inhibitory concentrations (MIC.) (Escherichia coli BE 1186): > 100 µg/mL
- Minimum growth inhibitory concentrations (MIC.) [18]: > 100 µg/mL
- Minimum growth inhibitory concentrations (MIC.) [19]: > 100 µg/mL
- Minimum growth inhibitory concentrations (MIC.) [20]: > 100 µg/mL
- Minimum growth inhibitory concentrations (MIC.) (Candida albicans 3147): > 100 µg/mL
- Minimum growth inhibitory concentrations (MIC.) [21]: > 100 µg/mL
- Minimum growth inhibitory concentrations (MIC.) [22]: > 100 µg/mL
- Minimum growth inhibitory concentrations (MIC.) [23]: > 100 µg/mL
- Minimum growth inhibitory concentrations (MIC.) (Proteus vulgaris OX 19): > 100 µg/mL
- Minimum growth inhibitory concentrations (MIC.) [24]: 50 µg/mL
- Minimum growth inhibitory concentrations (MIC.) [25]: > 100 µg/mL
- Minimum growth inhibitory concentrations (MIC.) [26]: > 100 µg/mL

SMILES: CNC(=O)CC1NC(=O)c2csc(n2)-c2ccc(-c3nc(C(=O)NCCCN(C)CCCN)cs3)nc2-c2csc(n2)-c2csc(n2)C(C(C)C)NC(=O)CNC(=O)c2csc(n2)C(C(C)C)NC(=O)c2nc1sc2C (stereo not drawn) [Compound No. 4]
- Minimum growth inhibitory concentrations (MIC.) [1]: > 100 µg/mL
- Minimum growth inhibitory concentrations (MIC.) (Salmonella typhi T-63): > 100 µg/mL
- Minimum growth inhibitory concentrations (MIC.) [2]: > 100 µg/mL
- Minimum growth inhibitory concentrations (MIC.) [3]: > 100 µg/mL
- Minimum growth inhibitory concentrations (MIC.) (Bacillus anthracis): 3.12 µg/mL
- Minimum growth inhibitory concentrations (MIC.) [4]: 3.12 µg/mL
- Minimum growth inhibitory concentrations (MIC.) [5]: > 100 µg/mL
- Minimum growth inhibitory concentrations (MIC.) (Escherichia coli BEM 11): > 100 µg/mL
- Minimum growth inhibitory concentrations (MIC.) [6]: > 100 µg/mL
- Minimum growth inhibitory concentrations (MIC.) [7]: 12.5 µg/mL
- Minimum growth inhibitory concentrations (MIC.) [8]: > 100 µg/mL
- Minimum growth inhibitory concentrations (MIC.) [9]: > 100 µg/mL
- Minimum growth inhibitory concentrations (MIC.) [10]: > 100 µg/mL
- Minimum growth inhibitory concentrations (MIC.) [11]: > 100 µg/mL
- Minimum growth inhibitory concentrations (MIC.) (Shigella sonnei JS 11746): > 100 µg/mL
- Minimum growth inhibitory concentrations (MIC.) (Escherichia coli K-12): > 100 µg/mL
- Minimum growth inhibitory concentrations (MIC.) (Escherichia coli NIHJ): > 100 µg/mL
- Minimum growth inhibitory concentrations (MIC.) [12]: > 100 µg/mL
- Minimum growth inhibitory concentrations (MIC.) (Serratia marcescens): > 100 µg/mL
- Minimum growth inhibitory concentrations (MIC.) [13]: > 100 µg/mL
- Minimum growth inhibitory concentrations (MIC.) [14]: > 100 µg/mL
- Minimum growth inhibitory concentrations (MIC.) [15]: > 100 µg/mL
- Minimum growth inhibitory concentrations (MIC.) [16]: > 100 µg/mL
- Minimum growth inhibitory concentrations (MIC.) [17]: > 100 µg/mL
- Minimum growth inhibitory concentrations (MIC.) (Escherichia coli BE 1186): > 100 µg/mL
- Minimum growth inhibitory concentrations (MIC.) [18]: > 100 µg/mL
- Minimum growth inhibitory concentrations (MIC.) [19]: 50 µg/mL
- Minimum growth inhibitory concentrations (MIC.) [20]: > 100 µg/mL
- Minimum growth inhibitory concentrations (MIC.) (Candida albicans 3147): > 100 µg/mL
- Minimum growth inhibitory concentrations (MIC.) [21]: > 100 µg/mL
- Minimum growth inhibitory concentrations (MIC.) [22]: 6.25 µg/mL
- Minimum growth inhibitory concentrations (MIC.) [23]: > 100 µg/mL
- Minimum growth inhibitory concentrations (MIC.) (Proteus vulgaris OX 19): > 100 µg/mL
- Minimum growth inhibitory concentrations (MIC.) [24]: 12.5 µg/mL
- Minimum growth inhibitory concentrations (MIC.) [25]: > 100 µg/mL
- Minimum growth inhibitory concentrations (MIC.) [26]: > 100 µg/mL
